Test results as given in patent US8211463B2, “Use of glycolipids as adjuvants” (Helmholtz-Zentrum Fuer Infektionsforschung GmbH, priority 2006, dated 2012).

Legend:
[1] = system: IFN-γ, IL-2, IL-4, IL-5, and TNFα; experiment: Cytometric bead array of cytokines in supernatants of restimulated spleen cells; format: in vivo, Balb/c mice; conditions: i.n., 10 μg glycolipid, restimulation with β-Gal antigen for 4 days
Description: Co-administration of β-Gal with 10 μg glycolipid 5 represented both Th1 and Th2 cytokine profiles activities in Balb/c mice. 10 days after the final immunization, the immunized Balb/c mice were sacrificed. A total of 5×10^6 cells/ml were stimulated with different concentrations of the β-Gal antigen for 4 days, and the levels of IFNγ and IL-4 in the supernatant were examined by the BD Cytometric bead array. Cytokine production of the spleen cells were analyzed using BD CBA kit according to the manufacturer's instructions. […] Curves represent cytokine concentration (pg/ml) and Stimulation index (SI) in response to enhanced antigen concentration in each group. Each group consists of five mice. Data are representative of two separate experiments.
To characterize the type of Th response stimulated following immunization, the content of IFN-γ, IL-2, IL-4, IL-5, and TNFα was measured in supernatants from in vitro re-stimulated spleen cells (FIGS. 8 and 9) by the Cytometric Bead Array. Culture supernatants from proliferating cells were collected on days 2 and 4, and stored at −70° C. Determinations of IFN-γ, TNFα, IL-2, IL-4, and IL-5 were performed by cytometric bead array analysis using the commercial kit from BectonDickinson, according to the manufacturer's instructions. […] The probes were analyzed subsequently by flow cytometry as described in the protocol of BD.

[2] = system: spleen cells of immunized mice; experiment: Splenocyte proliferation ([3H]thymidine incorporation) after in vitro restimulation with β-Gal; format: in vivo, Balb/c mice; conditions: i.n.
Description: (§1) Co-administration of β-Gal with 10 μg glycolipids 1, 5 and 6 induced a strong cellular immune responses against the β-Gal antigen in Balb/c mice. Balb/c mice were immunized by the i.n. or s.c. route with β-Gal alone or together with glycolipids 1, 5 and 6 three times at 2-wk intervals. 10 days after the final immunization, the immunized mice were sacrificed. Splenocytes of mice immunized by the i.n. (A) and s.c. (B) route were collected and cultured with different concentrations of the β-Gal-Protein for 4 days. […] Curves represent [^3H]thymidine incorporation (counts per minute, cpm) and Stimulation index (SI) in each group. Each group consists of five mice. Data are representative of three separate experiments.
as §1, with “with 20 up to 30” for “with 10”, “glycolipids” for “glycolipids 1,”, “represent [3H]thymidine incorpoaration” for “represent [^3H]thymidine incorporation”
Experimental protocol: Spleens were removed and pooled for analysis of cellular immune responses. Cells were grown in RPMI 1640 supplemented with 10% fetal calf serum, 100 U/ml of penicillin, 50 μg/ml of streptomycin, 5×10^−5 M 2-mercaptoethanol and 1 mM L-glutamine (GIBCO BRL, Karlsruhe, Germany) and maintained at 37° C. in a humidified 5% CO2 atmosphere. Spleen cell suspensions were adjusted to 5×10^6 cells/ml in complete medium, cells were seeded with 100 μl per well in a flat-bottomed 96-well microtiter plate (Nunc) and plates were incubated for 4 days. Unstimulated spleen cells were incubated in the presence of different concentrations of the new adjuvants to analyze the in vitro stimulation capacity of glycolipids 1, 5 or 6, respectively. T cellmediated immune responses were investigated at day 38 by measuring the proliferation of cells recovered from spleens after in vitro restimulation with β-Gal. Said spleen cells were obtained from vaccinated mice—said mice where immunized as described in Example 2—and incubated in the presence of different concentrations of the soluble β-Gal antigen. Each concentration was tested in triplicates. During the final 18 h of culture, 1 μCi of [^3H]thymidine (Amersham International, Freiburg, Germany) was added to each well. Cells were then harvested on paper filters (Filtermat A; Wallac, Freiburg, Germany) by using a cell harvester (Inotech, Wohlen, Switzerland), and the amount of incorporated [^3H]thymidine into the DNA of proliferating cells was determined by a β-scintillation counter (Wallac 1450, Micro-Trilux). The results are expressed as the arithmetic mean of [^3H]thymidine uptake in cpm.

[3] = 10 μg glycolipid, restimulation with β-Gal for 4 days

Compound | expression of proinflammatory (TNFα), Th1 (IFNγ and IL-2) and Th2 (IL-5) cytokines by spleen cells [1] | Stimulation index (SI), [3H]thymidine incorporation of spleen cells [2, 3] | Stimulation index (SI), [3H]thymidine incorporation of spleen cells ([2]; 20 up to 30 μg glycolipid, restimulation with β-Gal for 4 days) | Stimulation index (SI), [3H]thymidine incorporation of spleen cells ([2]; highest concentration (30 μg per animal))
CCCCCCCCCCCCCCOCC(COCCCCCCCCCCCCCC)O[C@@H]1O[C@H](CO)[C@@H](O[C@H]2O[C@H](CO)[C@@H](O)[C@H](O)[C@H]2O)[C@H](O)[C@H]1O [glycolipid 5, 1,3-Di-O-tetradecyl-2-O-[4′-O-(α-D-glucopyranosyl)-β-D-glucopyranosyl]-sn-glycerol] | enhanced expression |  |  | 
CCCCCCCCCCCCCCOCC(COCCCCCCCCCCCCCC)O[C@@H]1O[C@H](CO[C@H]2O[C@H](CO)[C@H](O)[C@H](O)[C@H]2O)[C@@H](O)[C@H](O)[C@H]1O [glycolipid 6, 1,3-di-O-tetradecyl-2-O-[6′-O-(α-D-galactopyranosyl)-β-D-glucopyranosyl]-sn-glycerol] |  | no effect | strong responses | > 3
CCCCCCCC/C=C\CCCCCCCCOCC(COCCCCCCCC/C=C\CCCCCCCC)O[C@@H]1O[C@H](CO)[C@@H](O[C@H]2O[C@H](CO)[C@@H](O)[C@H](O)[C@H]2O)[C@H](O)[C@H]1O (relative stereo) [glycolipid 1, 1,3-Di-O[cis-9-octadecenyl]-2-O-[4′-O-(α-D-glycopyranosyl)-β-D-glycopyranosyl]-sn-glycerol] |  | no effect |  | 
